Measurements from patent US12349677B2, “Antimicrobial composition” (CONOPCO, INC., priority 2018, dated 2025).

System: E. coli ATCC 10536
Test: In-vitro antibacterial efficacy (bacteria remaining after 4 hours contact, plate count)
Type: cell-based
Settings: contact time 4 hours at 37° C.
Protocol: The following samples were tested for in-vitro antibacterial efficacy using the below mentioned protocol
Sodium phosphate buffer 10 mM for culture preparation pH 7.4
The test organism was subcultured from the glycerol stock (stored at −70° C.) onto a TSA slant and incubated at 37° C. for 18 to 24 hours. The slant was stored in a refrigerator for a maximum of two weeks after which a fresh slant was prepared.
The test organisms were streaked from TSA slants onto petri plates containing TSA and incubated at 37° C. for 21 to 22 hours before use.
The bacterial inoculums were prepared corresponding to 10^6 cells in 10 mM Sodium Phosphate Buffer from the above plate.
The OD of culture was adjusted to 0.8 for E. coli, to give 10^8 cells/ml. Once the bacterial inoculums corresponding to 10^8 cells is prepared in sodium phosphate buffer, it is serially diluted to 10^6 cells ([…] in 10 mM sodium phosphate buffer)
135 μl bacterial inoculums (from 10^6 CFU/ml) was taken for all the treatments in a reaction volume of 300 μl (in a microtiter plate/96 well plate).
15 μl of 100 mM buffer was taken for all controls and treatments so that the final conc. corresponds to ˜5 mM in all the reactions.
The respective compounds/actives to be tested were taken and made up to a volume of 300 μl with autoclaved distilled water.
Note: Each treatment is kept in duplicates.
The microtiter plate was incubated at 37° C. for a contact time of 4 hours and then plated on TSA after required serial dilutions in neutralizer D/E to study bacterial kill.
Plates were incubated overnight for E. coli
The colonies were counted to estimate the bacteria remaining and thereby the log kill.
Experiments similar to the ones carried out for thymol+THPE were carried out with carvacrol+THPE. The antibacterial efficacy was measured in vitro as detailed above for examples 1 and A-C.
Experiments similar to the ones carried out for thymol+THPE were carried out with eugenol+THPE. The antibacterial efficacy was measured in vitro as detailed above for examples 1 and A-C.

[1] = Table 1, thymol/THPE series, culture control 6.36
[2] = Table 4, carvacrol/THPE series, culture control 6.41
[3] = Table 5, eugenol/THPE series, culture control 6.23

**Q.** How did the “Average of bacteria remaining” value [1] turn out when `CC(O)CN(CCN(CC(C)O)CC(C)O)CC(C)O` (stereo not shown) [B, tetrahydroxypropyl ethylenediamine] was run?
**A.** 5.98 log cfu/ml

**Q.** `Cc1ccc(C(C)C)c(O)c1` [C, thymol] was tested. Which “Average of bacteria remaining” value [1] did it give?
**A.** 6.26 log cfu/ml

**Q.** With `Cc1ccc(C(C)C)cc1O` [F, carvacrol] as the molecule, how does the “Average of bacteria remaining” value [2] read?
**A.** 6.12 log cfu/ml

**Q.** `CC(O)CN(CCN(CC(C)O)CC(C)O)CC(C)O` (stereo not shown) [G, tetrahydroxypropyl ethylenediamine] was tested. Which “Average of bacteria remaining” value [2] did it give?
**A.** 5.97 log cfu/ml

**Q.** With `CC(O)CN(CCN(CC(C)O)CC(C)O)CC(C)O` (stereo not shown) [H, tetrahydroxypropyl ethylenediamine] as the molecule, how does the “Average of bacteria remaining” value [2] read?
**A.** 5.45 log cfu/ml

**Q.** Which “Average of bacteria remaining” value [3] does the source give for `C=CCc1ccc(O)c(OC)c1` [J, Eugenol] here?
**A.** 6.15 log cfu/ml

**Q.** For `CC(O)CN(CCN(CC(C)O)CC(C)O)CC(C)O` (stereo not shown) [K, tetrahydroxypropyl ethylenediamine], which “Average of bacteria remaining” value [3] is on record?
**A.** 5.44 log cfu/ml
